Results: patent US4353986A, “Process for producing antibiotic nanaomycin E” (priority 1978, dated 1982)
Values after ≈ are worked out from the molar mass of the structure shown.

Tests used:
[1] = acute toxicity (LD50) in mice; settings: mouse, in vivo, iv; interaneveously administered to mice
Source text: (§1) Thus, nanaomycin E is of interest as an antibacterial and therapeutic agent for humans and animals.

[2] = tested on: Gram-positive bacteria, Trichophyton and Mycoplasma; settings: cited from earlier work
[3] = tested on: Aspergillus niger ATCC 6275; assay: antifungal spectrum, MIC by agar dilution; type: cell-based; settings: ATCC6275, potato-agar pH 6.4, 27° C., 70 hours
Saccharomyces sake = assay: antifungal spectrum, MIC by agar dilution; type: cell-based; settings: potato-agar pH 6.4, 27° C., 70 hours
[4] = tested on: Bacillus subtilis PCI 219; assay: antibacterial spectrum, MIC by agar dilution; type: cell-based; settings: PCI219, nutrient agar pH 7.0, 37° C., 20 hours
Trichophyton rubrum = assay: antifungal spectrum, MIC by agar dilution; type: cell-based; settings: potato-agar pH 6.4, 27° C., 70 hours
Sarcina lutea PCI 1001 = assay: antibacterial spectrum, MIC by agar dilution; type: cell-based; settings: Micrococcus luteus, PCI1001, nutrient agar pH 7.0, 37° C., 20 hours
[5] = tested on: Staphylococcus aureus FDA 209P; assay: antibacterial spectrum, MIC by agar dilution; type: cell-based; settings: FDA209P, nutrient agar pH 7.0, 37° C., 20 hours
Trichophyton schoenleini = assay: antifungal spectrum, MIC by agar dilution; type: cell-based; settings: potato-agar pH 6.4, 27° C., 70 hours
[6] = tested on: Staphylococcus aureus KB 64 (erythromycin- and tetracycline-resistant); assay: antibacterial spectrum, MIC by agar dilution; type: cell-based; settings: nutrient agar pH 7.0, 37° C., 20 hours
Nocardia asteroides = assay: antibacterial spectrum, MIC by agar dilution; type: cell-based; settings: nutrient agar pH 7.0, 37° C., 20 hours
[7] = tested on: Gram-positive bacteria and fungi; assay: activity against Gram-positive bacteria and fungi compared with nanaomycin A and D; type: cell-based
Experimental: (§2) The antibacterial and antifungal spectrum of nanaomycin E is shown in Table 1, in which the minimum inhibitory concentration (MIC) is determined by the agar dilution method. In the case of bacteria, the determination was made after culturing at 37° C. for 20 hours by using a nutrient agar having a pH of 7.0 and, in the cases of fungi, the determination was made after culturing at 27° C. for 70 hours by using a potato-agar having a pH of 6.4.
as §1

Bacillus cereus T = assay: antibacterial spectrum, MIC by agar dilution; type: cell-based; settings: nutrient agar pH 7.0, 37° C., 20 hours
[8] = tested on: Staphylococcus aureus FS 1277 (penicillin-resistant); assay: antibacterial spectrum, MIC by agar dilution; type: cell-based; settings: nutrient agar pH 7.0, 37° C., 20 hours
[9] = tested on: Trichophyton mentagrophytes; assay: antifungal spectrum, MIC by agar dilution; type: cell-based; settings: potato-agar pH 6.4, 27° C., 70 hours
Microsporum gypseum = assay: antifungal spectrum, MIC by agar dilution; type: cell-based; settings: Nannizzia gypsea, potato-agar pH 6.4, 27° C., 70 hours
Salmonella typhimurium = assay: antibacterial spectrum, MIC by agar dilution; type: cell-based; settings: Salmonella enterica, nutrient agar pH 7.0, 37° C., 20 hours
[10] = tested on: Proteus vulgaris IFO 3167; assay: antibacterial spectrum, MIC by agar dilution; type: cell-based; settings: IFO3167, nutrient agar pH 7.0, 37° C., 20 hours
[11] = tested on: Pseudomonas aeruginosa P 3; assay: antibacterial spectrum, MIC by agar dilution; type: cell-based; settings: P3, nutrient agar pH 7.0, 37° C., 20 hours
[12] = tested on: Mycobacterium smegmatis ATCC 607; assay: antibacterial spectrum, MIC by agar dilution; type: cell-based; settings: Mycolicibacterium smegmatis, ATCC607, nutrient agar pH 7.0, 37° C., 20 hours
[13] = tested on: Trichophyton interdigitale; assay: antifungal spectrum, MIC by agar dilution; type: cell-based; settings: potato-agar pH 6.4, 27° C., 70 hours
Shigella sonnei E 33 = assay: antibacterial spectrum, MIC by agar dilution; type: cell-based; settings: E33, nutrient agar pH 7.0, 37° C., 20 hours
Experimental: as §2

Candida albicans = assay: antifungal spectrum, MIC by agar dilution; type: cell-based; settings: potato-agar pH 6.4, 27° C., 70 hours
Escherichia coli NIHJ = assay: antibacterial spectrum, MIC by agar dilution; type: cell-based; settings: nutrient agar pH 7.0, 37° C., 20 hours
Piricularia oryzae = assay: microbe, parasite or virus in culture; type: cell-based; settings: pH 6.4; 27° C., 70 hours
solubility = type: physicochemical

In the case of CC1OC(CC(=O)O)CC2=C1C(=O)c1c(O)cccc1C2=O (stereo not drawn) [nanaomycin A], the LD50 [1] is given as 46 mg/kg, the antibiotic activity ([2]; against Gram-positive bacteria, Trichophyton and Mycoplasma, known compound) is given as “having antibiotic activity against Gram-positive bacteria, Trichophyton and Mycoplasma” and the “activity against Gram-positive bacteria, Trichophyton and Mycoplasma” value ([2]; among nanaomycin-type compounds) is given as “exhibits the strongest activity”.
In the case of CC1OC2CC(=O)OC2C2=C1C(=O)c1c(O)cccc1C2=O (stereo not drawn) [nanaomycin D], the LD50 [1] is reported as 1.5 mg/kg.
For CC1OC(CC(=O)O)CC23OC12C(=O)c1c(O)cccc1C3=O (stereo not drawn) [nanaomycin E], the MIC [3] was > 100 µg/mL, the MIC (Saccharomyces sake) was > 100 µg/mL and the MIC [4] was 12.5 µg/mL (≈ 39.3 µM). The MIC (Trichophyton rubrum) was 50 µg/mL (≈ 157 µM), the MIC (Sarcina lutea PCI 1001) was 25 µg/mL (≈ 78.5 µM) and the LD50 [1] was 60 mg/kg. The MIC [5] was 25 µg/mL (≈ 78.5 µM), the MIC (Trichophyton schoenleini) was 50 µg/mL (≈ 157 µM) and the MIC [6] was 25 µg/mL (≈ 78.5 µM). For the same molecule, the MIC (Nocardia asteroides) was > 100 µg/mL, the “activity against Gram-positive bacteria and fungi relative to nanaomycin A and D” value [7] was “approximately equal to or somewhat weaker than the activities of nanaomycin A and D” and the MIC (Bacillus cereus T) was 12.5 µg/mL (≈ 39.3 µM). It also gave an MIC [8] of 25 µg/mL (≈ 78.5 µM), an MIC [9] of 50 µg/mL (≈ 157 µM) and an MIC (Microsporum gypseum) of 100 µg/mL (≈ 314 µM). For the same molecule, the MIC (Salmonella typhimurium) was > 100 µg/mL, the MIC [10] was 25 µg/mL (≈ 78.5 µM) and the MIC [11] was > 100 µg/mL. For the same molecule, the MIC [12] was > 100 µg/mL, the MIC [13] was 50 µg/mL (≈ 157 µM) and the MIC (Shigella sonnei E 33) was > 100 µg/mL. For the same molecule, the MIC (Candida albicans) was > 100 µg/mL, the MIC (Escherichia coli NIHJ) was 50 µg/mL (≈ 157 µM) and the MIC (Piricularia oryzae) was 100 µg/mL (≈ 314 µM). For the same molecule, the Solubility (solubility; in methanol, ethanol, ethyl acetate, butyl acetate etc.) was “Easily soluble” and the Solubility (solubility; in n-hexane, petroleum ether etc.) was “Insoluble”.
